According to patent US7071316B1, “Human Akt-3” (Janssen Pharmaceutica N.V., priority 1998, dated 2006):
“And” between values parts separate entries of the source, which are not always exact repeats. Identical values can stand only once. Blank lines part the entries; values can stand above or below the molecule they belong to.

Key:
histone H2B [1] = test system: histone H2B
[2] = target: T1, T305D,S472D variant of Akt-3 (Homo sapiens, UniProt Q9Y243, S472D/T305D); test: Akt-3 histone H2B phosphorylation assay (GST fusion protein from E. coli, phosphorimager after SDS-PAGE); format: biochemical; conditions: for effect on the activity of the T305D,S472D variant of Akt-3: tested at a concentration of 10 FM
T1 construct: made in house; host or cells: E. coli BL21 DE3 (pGEX-4T-3)
Experimental: After 30 minutes, the reaction was terminated and the extent of H2B phosphorylation quantified on a phosphorimager following SDS-PAGE.
The pGEX expression constructs were transformed into E. coli strain BL21 DE3 and GST-fusion proteins of wild-type and mutated Akt-3 were purified on glutathione sepharose according to the manufacturers instructions (Amersham Pharmacia Biotech, Uppsala, Sweden). The protein eluted from the beads was stored in 50% glycerol at −20° C. Akt activity was assessed by incubating 0.8 Fg of the purified enzyme for 30 minutes at room temperature (unless otherwise indicated) in a buffer containing 10 mM HEPES, 10 mM MgCl2, 1 mM DTT, 0.1 mg/ml histone H2B at pH 7.0, in a total volume of 25 Fl and containing 10 FCi [γ-^32P]-ATP (6000 Ci/mmol). […] The reaction was stopped by the addition of 25 Fl sample buffer for SDS-PAGE. The results were quantified on a phosphorimager following SDS-PAGE on a 15% (w/v) acrylamide gel.

Akt-3 [3] = test: Activation of HA-tagged Akt-3 by IGF in transfected HEK-293 cells (immunoprecipitate, Crosstide phosphorylation); format: cell-based, human
Experimental: FIG. 3 is an illustration of phosphorylation of histone H2B by Akt-3 variants. (A) Akt-3 was expressed as a GST fusion protein in E. Coli. To assess hAkt-3 activity, Histone H2B was incubated with GST-Akt-3 and GST-Akt-3 variants for the indicated time and the extent of phosphorylation assessed after SDS-PAGE. The variants of Akt-3 are designated: W.T., wild type; T305D, Thr^305 mutated to Asp; S472D, Ser^472 mutated to Asp; T305D,S472D, both Thr^305 and Ser^472 mutated to Asp. No significant phosphorylation was observed when GST was used in place of GST-Akt. […] Samples were analysed by blotting for the HA-tag (upper panel) or with a phosphospecific antibody which recognises phosphorylated ser^472 (lower panel). (C) Akt activity in HA-immuno-precipitates from samples prepared as described above was assessed by measuring phosphorylation of a peptide substrate (Crosstide). The results are expressed as the increase in activity compared to unstimulated cells transfected with empty vector (mean±s.e.m., n=7).
For expression in HEK-293 cells, cells were transfected with pCDNA-3 Akt-3 constructs as described previously (Alessi et al 1996). […] Akt activity was assessed in immune complexes by measuring phosphorylation of a peptide substrate (Crosstide) in the presence of 1 μM PKI (PKA inhibitor) and 1 μM […] (PKC inhibitor) as described.

Akt-3 [4] = test: Activation of HA-tagged Akt-3 by IGF-1 in transfected Cos-7 cells (HA immunoprecipitates); format: cell-based, human; conditions: stimulation with IGF-1 10 ng/ml, n=2
Experimental: Akt-3 was transiently expressed in Cos-7 by calcium phosphate transfection of the cells with the construct HA-hAkt-3/pcDNA-3. The cells were stimulated with 10 ng/ml IGF-1 for 30 minutes, lysed and Akt-3 immunoprecipitated with mAb 12CA5. Akt-3 activity was assessed as described below.

PKC [5] = conditions: Davis, et al., 1992; cited from earlier work
PKC [6] = test: Inhibition of PKC (literature, Davis et al., 1992); format: biochemical; conditions: more potent inhibitor of PKC than of Akt-3
histone H2B [7] = target: histone H2B; remark: listed apart in the source

T1 sequence (Q9Y243 whole entry T305D/S472D, the tested form may be a part): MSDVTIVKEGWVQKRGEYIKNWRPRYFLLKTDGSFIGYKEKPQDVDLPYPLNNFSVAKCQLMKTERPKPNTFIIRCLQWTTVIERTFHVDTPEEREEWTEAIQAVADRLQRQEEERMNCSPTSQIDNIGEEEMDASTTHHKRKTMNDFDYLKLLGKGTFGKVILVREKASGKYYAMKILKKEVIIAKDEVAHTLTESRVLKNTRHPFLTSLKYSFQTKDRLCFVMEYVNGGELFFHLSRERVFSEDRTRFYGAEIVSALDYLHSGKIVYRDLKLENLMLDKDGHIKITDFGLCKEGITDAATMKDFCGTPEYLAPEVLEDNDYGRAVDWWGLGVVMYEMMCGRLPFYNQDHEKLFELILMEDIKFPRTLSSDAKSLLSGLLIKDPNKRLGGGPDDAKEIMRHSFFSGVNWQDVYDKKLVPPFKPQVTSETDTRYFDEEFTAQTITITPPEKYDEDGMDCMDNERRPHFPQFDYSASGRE

Molecule: GST-Akt-3 T305D,S472D (construct hAKT-3(T305D/S472D)/pGEX-4T-3)
initial rate of phosphorylation of histone H2B, relative to the wild-type enzyme (histone H2B [1]): 3.2-fold increase

effect on the activity of the T305D,S472D variant of Akt-3 [2]: no significant effect
Molecule: COc1cccc(-c2cc(=O)c3ccccc3o2)c1N [PD 98059]

Molecule: GST-Akt-3 S472D (construct hAKT-3(S472D)/pGEX-4T-3)
initial rate of phosphorylation of histone H2B, relative to the wild-type enzyme (histone H2B [1]): increased the initial rate only 1.4 fold

effect on the activity of the T305D,S472D variant of Akt-3 [2]: no significant effect
Molecule: O=S(=O)(NCCNC/C=C/c1ccc(Br)cc1)c1cccc2cnccc12 [H-89]

Molecule: GST-Akt-3 T305D (construct hAKT-3(T305D)/pGEX-4T-3)
initial rate of phosphorylation of histone H2B, relative to the wild-type enzyme (histone H2B [1]): 2.0-fold increase

effect on the activity of the T305D,S472D variant of Akt-3 [2]: no significant effect
Molecule: Cn1c2ccccc2c2c3c(c4c5ccccc5n(CCC#N)c4c21)CNC3=O [Go 6976]

Molecule: IGF-1: extracellular stimulus (growth factor) used to activate Akt-3 in transfected cells
increase of Akt-3 activity in anti-HA immunoprecipitates (Akt-3 [3]; upon treatment with IGF (50 ng/ml), above that in untransfected cells, HEK-293): ~60 fold | increase of Akt-3 activity in HA immunoprecipitates (Akt-3 [4]): 1.5 fold and 1.9 fold

Molecule: Cn1cc(C2=C(c3cn(CCCSC(=N)N)c4ccccc34)C(=O)NC2=O)c2ccccc21 [Ro 31-8220]
IC50 (PKC [5]): 0.1 nM | potency as inhibitor of PKC relative to Akt-3 (PKC [6]): approximately 100 fold | inhibition of Akt-3 (in words) ([2]; discussion summary of the inhibitor panel): potently inhibited

Molecule: CN(C)CCCn1cc(C2=C(c3c[nH]c4ccccc34)C(=O)NC2=O)c2ccccc21 [GF-109203×]
effect on the activity of the T305D,S472D variant of Akt-3 [2]: no significant effect

effect on the activity of the T305D,S472D variant of Akt-3 [2]: no significant effect
Molecule: O=S(=O)(NCCNCC=Cc1ccccc1)c1cccc2cnccc12 [H-88]

effect on the activity of the T305D,S472D variant of Akt-3 [2]: no significant effect
Molecule: CCCCCCOC(=O)[C@]1(O)C[C@@H]2O[C@@]1(C)n1c3ccccc3c3c4c(c5c6ccccc6n2c5c31)C(=O)NC4 [KT5720]

Molecule: O=c1cc(N2CCOCC2)oc2c(-c3ccccc3)cccc12 [CY29 4002]
inhibition of activation of Akt-3 (Akt-3 [3]; prior treatment, 100 FM, HEK-293 cells stimulated with IGF, data not shown): 94%

effect on the activity of the T305D,S472D variant of Akt-3 [2]: no significant effect
Molecule: CN([C@@H](Cc1ccc(OS(=O)(=O)c2cccc3cnccc23)cc1)C(=O)N1CCN(c2ccccc2)CC1)S(=O)(=O)c1cccc2cnccc12 [KN-62]

B1: GST-Akt-3 wild type (construct hAKT-3(WT)/pGEX-4T-3) (protein)
chain: MSDVTIVKEGWVQKRGEYIKNWRPRYFLLKTDGSFIGYKEKPQDVDLPYPLNNFSVAKCQLMKTERPKPNTFIIRCLQWTTVIERTFHVDTPEEREEWTEAIQAVADRLQRQEEERMNCSPTSQIDNIGEEEMDASTTHHKRKTMNDFDYLKLLGKGTFGKVILVREKASGKYYAMKILKKEVIIAKDEVAHTLTESRVLKNTRHPFLTSLKYSFQTKDRLCFVMEYVNGGELFFHLSRERVFSEDRTRFYGAEIVSALDYLHSGKIVYRDLKLENLMLDKDGHIKITDFGLCKEGITDAATMKTFCGTPEYLAPEVLEDNDYGRAVDWWGLGVVMYEMMCGRLPFYNQDHEKLFELILMEDIKFPRTLSSDAKSLLSGLLIKDPNKRLGGGPDDAKEIMRHSFFSGVNWQDVYDKKLVPPFKPQVTSETDTRYFDEEFTAQTITITPPEKYDEDGMDCMDNERRPHFPQFSYSASGRE
phosphorylation of histone H2B (histone H2B [7]): The purified enzyme was able to phosphorylate histone H2B
